Experiment [1] concerns the target T1, PTH receptor in bovine renal cortical plasma membranes (Bos taurus, UniProt Q1LZF7).
T1 construct: from tissue; host or cells: bovine renal cortex, plasma membranes
T1 sequence (Q1LZF7 29-589): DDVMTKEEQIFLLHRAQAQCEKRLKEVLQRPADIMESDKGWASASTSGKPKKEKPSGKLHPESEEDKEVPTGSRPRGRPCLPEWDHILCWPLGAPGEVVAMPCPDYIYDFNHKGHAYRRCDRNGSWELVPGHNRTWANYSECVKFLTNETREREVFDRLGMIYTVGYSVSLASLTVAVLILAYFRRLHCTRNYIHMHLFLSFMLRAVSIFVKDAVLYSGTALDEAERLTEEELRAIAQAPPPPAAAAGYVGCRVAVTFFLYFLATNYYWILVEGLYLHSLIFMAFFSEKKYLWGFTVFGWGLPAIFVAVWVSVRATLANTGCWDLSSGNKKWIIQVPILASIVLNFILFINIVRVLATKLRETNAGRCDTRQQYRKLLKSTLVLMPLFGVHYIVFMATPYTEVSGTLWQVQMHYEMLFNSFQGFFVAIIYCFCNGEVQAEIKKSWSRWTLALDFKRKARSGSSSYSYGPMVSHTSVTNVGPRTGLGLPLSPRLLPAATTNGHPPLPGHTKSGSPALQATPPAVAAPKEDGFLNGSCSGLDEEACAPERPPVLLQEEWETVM
The experiment in a line: PTH binding assay, bovine renal cortical plasma membranes, radioligand [Nle8,18,125I-Tyr34]bPTH(1-34)NH2. As to conditions: 30 min at 21° C. Here is the method: Bovine renal cortical plasma membranes were incubated with radioligand (25,000 cpm) in the absence or presence of PTH analogues in a Tris containing buffer (250 μl) for 30 min. at 21° C. Once equilibrium was reached, bound and free radioligand were separated by centrifugation.

Experiment [2] concerns the target T2, I^125 -labeled PTH binding to rat osteosarcoma cell line ROS 17/2.8 (Rattus norvegicus, UniProt P25961).
T2 construct: bone-derived rat osteosarcoma cell line ROS 17/2.8; endogenous in cells; host or cells: ROS 17/2.8 rat osteosarcoma cells
T2 sequence (P25961 27-591): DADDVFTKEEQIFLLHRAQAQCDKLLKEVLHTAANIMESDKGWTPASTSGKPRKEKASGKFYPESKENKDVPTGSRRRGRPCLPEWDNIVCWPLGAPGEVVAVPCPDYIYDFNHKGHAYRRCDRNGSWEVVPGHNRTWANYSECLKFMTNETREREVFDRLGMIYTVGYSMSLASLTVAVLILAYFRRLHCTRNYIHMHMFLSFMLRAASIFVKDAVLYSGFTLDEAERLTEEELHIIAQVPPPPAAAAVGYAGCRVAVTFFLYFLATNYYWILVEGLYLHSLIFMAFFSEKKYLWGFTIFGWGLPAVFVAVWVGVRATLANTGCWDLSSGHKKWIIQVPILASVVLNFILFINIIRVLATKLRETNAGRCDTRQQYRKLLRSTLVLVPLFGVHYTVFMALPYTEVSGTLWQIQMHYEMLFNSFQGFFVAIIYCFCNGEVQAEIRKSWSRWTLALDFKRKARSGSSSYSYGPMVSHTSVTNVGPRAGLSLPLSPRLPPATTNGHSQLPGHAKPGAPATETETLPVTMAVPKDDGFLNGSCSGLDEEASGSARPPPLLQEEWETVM
Put plainly: PTH binding assay, ROS 17/2.8 cells.

Experiment [3] has as its target T3, I^125 -labeled PTH binding to canine renal cortical membranes (Canis lupus familiaris, UniProt Q9TU31).
T3 construct: from tissue; host or cells: canine renal cortex, membranes
T3 sequence (Q9TU31 29-595): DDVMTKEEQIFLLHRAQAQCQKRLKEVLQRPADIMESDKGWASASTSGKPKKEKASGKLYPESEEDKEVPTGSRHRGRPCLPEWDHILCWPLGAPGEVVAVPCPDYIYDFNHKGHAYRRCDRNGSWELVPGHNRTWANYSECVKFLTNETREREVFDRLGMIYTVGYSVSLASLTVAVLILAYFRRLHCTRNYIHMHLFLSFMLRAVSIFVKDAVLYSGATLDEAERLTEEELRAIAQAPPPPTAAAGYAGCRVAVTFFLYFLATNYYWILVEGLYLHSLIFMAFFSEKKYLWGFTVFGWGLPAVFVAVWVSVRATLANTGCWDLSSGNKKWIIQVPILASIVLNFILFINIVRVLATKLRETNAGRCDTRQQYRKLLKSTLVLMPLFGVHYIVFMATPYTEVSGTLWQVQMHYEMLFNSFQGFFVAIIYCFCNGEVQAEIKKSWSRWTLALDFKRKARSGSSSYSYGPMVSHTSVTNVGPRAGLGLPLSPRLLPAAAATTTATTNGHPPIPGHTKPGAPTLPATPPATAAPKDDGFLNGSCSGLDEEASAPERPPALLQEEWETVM
The experiment in a line: PTH binding assay (canine kidney).

Experiment [4] has as its target T4, I^125 -labeled PTH binding to human osteosarcoma cells (BIO) (Homo sapiens, UniProt Q03431).
T4 construct: endogenous in cells; host or cells: human osteosarcoma cells (BIO)
T4 sequence (Q03431 27-593): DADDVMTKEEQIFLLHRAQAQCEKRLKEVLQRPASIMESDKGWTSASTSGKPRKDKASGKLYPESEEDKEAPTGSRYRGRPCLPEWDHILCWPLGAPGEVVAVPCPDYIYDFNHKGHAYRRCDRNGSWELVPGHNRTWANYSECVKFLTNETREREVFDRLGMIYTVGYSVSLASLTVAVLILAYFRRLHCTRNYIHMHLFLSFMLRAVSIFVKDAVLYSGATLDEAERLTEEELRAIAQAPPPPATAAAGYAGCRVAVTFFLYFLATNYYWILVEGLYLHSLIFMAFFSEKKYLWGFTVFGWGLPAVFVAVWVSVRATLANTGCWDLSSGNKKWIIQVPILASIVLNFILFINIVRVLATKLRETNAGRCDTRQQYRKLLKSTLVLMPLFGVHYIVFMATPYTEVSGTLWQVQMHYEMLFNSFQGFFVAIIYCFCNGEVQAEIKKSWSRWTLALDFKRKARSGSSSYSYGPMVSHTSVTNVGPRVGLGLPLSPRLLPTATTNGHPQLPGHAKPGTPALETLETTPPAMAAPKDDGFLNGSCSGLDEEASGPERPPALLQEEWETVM
The experiment in a line: PTH binding assay (human osteosarcoma cells). From the text:
The results are as follows:

Molecules are shown by their SMILES.

In general, Ki refers to a measure of affinity in units of concentration, obtained from inhibition or displacement.

For the molecule `CCCC[C@H](NC(=O)[C@H](CO)NC(=O)[C@H](CO)NC(=O)[C@H](CC(C)C)NC(=O)[C@H](Cc1c[nH]cn1)NC(=O)[C@H](CCCCN)NC(=O)CNC(=O)[C@H](CC(C)C)NC(=O)[C@H](CC(N)=O)NC(=O)[C@H](Cc1c[nH]cn1)NC(=O)[C@H](CCCC)NC(=O)[C@@H](N)Cc1ccccc1)C(=O)N[C@@H](CCC(=O)O)C(=O)N[C@@H](CCCNC(=N)N)C(=O)N[C@H](C(=O)N[C@@H](CCC(=O)O)C(=O)N[C@@H](Cc1c[nH]c2ccccc12)C(=O)N[C@@H](CC(C)C)C(=O)N[C@@H](CCCNC(=N)N)C(=O)N[C@@H](CCCCN)C(=O)N[C@@H](CCCCN)C(=O)N[C@@H](CC(C)C)C(=O)N[C@@H](CCC(N)=O)C(=O)N[C@@H](CC(=O)O)C(=O)N[C@H](C(=O)N[C@@H](Cc1c[nH]cn1)C(=O)N[C@@H](CC(N)=O)C(=O)N[C@@H](Cc1ccc(O)cc1)C(N)=O)C(C)C)C(C)C` [[Nle^8,18,Tyr^34]bPTH(7-34)NH2], the Ki in experiment [1] turned out to be 145 ± 13 nM; in experiment [2] it was 964 ± 170 nM.

`CSCC[C@H](NC(=O)[C@H](CO)NC(=O)[C@H](CO)NC(=O)[C@H](CC(C)C)NC(=O)[C@H](Cc1c[nH]cn1)NC(=O)[C@H](CCCCN)NC(=O)CNC(=O)[C@H](CC(C)C)NC(=O)[C@H](CC(N)=O)NC(=O)[C@H](Cc1c[nH]cn1)NC(=O)[C@H](CCSC)NC(=O)[C@@H](N)Cc1ccccc1)C(=O)N[C@@H](CCC(=O)O)C(=O)N[C@@H](CCCNC(=N)N)C(=O)N[C@H](C(=O)N[C@@H](CCC(=O)O)C(=O)N[C@@H](Cc1c[nH]c2ccccc12)C(=O)N[C@@H](CC(C)C)C(=O)N[C@@H](CCCNC(=N)N)C(=O)N[C@@H](CCCCN)C(=O)N[C@@H](CCCCN)C(=O)N[C@@H](CC(C)C)C(=O)N[C@@H](CCC(N)=O)C(=O)N[C@@H](CC(=O)O)C(=O)N[C@H](C(=O)N[C@@H](Cc1c[nH]cn1)C(=O)N[C@@H](CC(N)=O)C(=O)N[C@@H](Cc1ccc(O)cc1)C(N)=O)C(C)C)C(C)C` [[Tyr^34]bPTH(7-34)NH2]: the Ki worked out at 76 ± 9 nM in experiment [1], 700 ± 90 nM in experiment [2], 45.8 ± 11.3 nM in experiment [3] and 5.5 ± 1.6 nM in experiment [4].

For the origin of these results see patent US4968669A, “Parathyroid hormone antagonists” (Merck & Co., Inc., priority 1989, dated 1990).
